The values that follow are results of earlier work, collected in patent US6294674A, “Dibenzofuran sulfonamide matrix metalloproteinase inhibitors” (priority 1999, dated 2001).

The test system of this data set is human ovarian carcinoma xenografts. As to conditions: Davies, et al., Cancer Res., 1993; cited from earlier work.

For `CNC(=O)[C@H](Cc1ccccc1)NC(=O)[C@H](CC(C)C)[C@H](CSc1cccs1)C(=O)NO` [BB-94], the survival result was “prolonged the survival of mice” and the tumor burden result is reported as “decreased the tumor burden”.
